# Measured values reported in publication PMC6091370, “Preclinical Evaluation of [^18F]LCATD as a PET Tracer to Study Drug-Drug Interactions Caused by Inhibition of Hepatic Transporters” (Contrast Media & Molecular Imaging, 2018).
# Where “and” joins values, the source holds several entries; their conditions need not be identical. Equal entries are not always repeated.
# Key:
# [1] = Dynamic PET/CT imaging of hepatic uptake and biliary excretion of [18F]LCATD in rats; format: in vivo, rat; settings: for CLuptake,in vivo (in vivo hepatic uptake clearance): Patlak integration plot 0–3 min; for CLuptake,in vivo (in vivo hepatic uptake clearance) / t max (time to maximum peak concentration in liver) / AUCbile 0–10 min (radioactivity in the gastrointestinal tract) / AUCliver 0–5 min / AUCliver 0–30 min / CLint,bile (intrinsic biliary clearance of the radiotracer) / Kp liver 0−5 min (apparent liver-to-blood AUC0–5 min ratio) / Cmax,liver (maximum measured activity in the liver): n=3
# Experimental: PET scans were performed with a preclinical PET/CT SEDECAL ARGUS scanner (SEDECAL, Spain) housed in a temperature-controlled suite. The scanner has two 11.8 cm diameter rings of photoswitch detectors coupled to position-sensitive photomultiplier tubes, giving a 4.8 cm axial and 7.5 cm transaxial field of view (FOV). All animals were cannulated (Venisystem Butterfly, Abbott Ireland) in the tail vein for tracer injection under general anaesthesia with isoflurane (IsoFlo 100% w/w, Abbott Laboratories Ltd) 2.5% (2 L·min^−1 oxygen flow). Animals were divided into three groups: control group (administered with [ ^18 F]LCATD only, 3 animals), rifamycin SV-treated group (3 animals) and fusidate-treated group (3 animals). All the animals were scanned in supine position. At the start of the scan, [ ^18 F]LCATD (5–15 MBq per body) was injected as a single bolus into the tail vein. Administered radioactivity was measured as the net counts in the syringe before and after the injection with an ionization chamber (Capintec CRC-15PET; Ramsey, New Jersey). The mass amount of [ ^18 F]LCATD administered per animal was estimated to be between 0.2 and 1 nmol. For inhibition experiments, rifamycin SV was administrated 45 minutes before the start of the scan at a dose of 50mg·Kg^−1 (intraperitoneally) and at the time of the tracer injection at a dose of 12.5 mg·Kg^−1 (intravenously). For the in vivo assessment of the inhibitory effect of sodium fusidate on the hepatobiliary transport of the tracer, the drug was administrated at a dose of 20 mg·Kg^−1 (intraperitoneally) 30 minutes before the scan and at a dose of 10 mg·Kg^−1 (intravenously) after 15 minutes from the tracer injection. Emission scans in 3D list-mode were acquired for 30 minutes (with a FOV encompassing part of the thorax and the intestine) followed by a 5 minutes CT scan. PET acquisitions were obtained with an energy window set to 250–700 keV and corrections for dead-time, activity decay, attenuation, random, and scatter counts were applied (using the manufacturer' software). The dynamic images were obtained by sorting the list mode data into the following time frames: 6 × 10 s, 8 × 30 s, 10 × 60 s, and 3 × 300 s, and images were reconstructed with a FORE/2D-OSEM reconstruction algorithm (provided by the manufacturer). Sampling at shorter intervals during early time-points enabled us to detect rapid increments of tracer uptake in the liver and intestine. […] A 5-minute PET scan of the injection site at the end of the CT was obtained to ensure successful intravenous injection. Cross calibration between the ionization chamber and the PET scanner was carried out by using a cylindrical phantom made of Perspex with internal diameter of 43 mm and length of 37 mm. 10 to 20 minute PET scans of the phantom filled with an average of about 4.20 MBq of [ ^18 F]LCATD in 60 g of water were acquired (average dead-time value 4%).
# The registered PET and CT images were transferred from the scanner to a processing workstation, and subsequent analysis was carried out using Pmod (Pmod Technologies, CH) version 3.2. Regions of interest (ROIs) corresponding to abdominal aorta, liver, and gastrointestinal tract were defined via a combination of manual and threshold methods (Supplementary Figure 1 and movie) using PMOD software (PMOD Technologies). The stomach was included in the gastrointestinal ROI to include the amount of bile that might have refluxed from the duodenum into the stomach.
# Uptake hepatic clearance CLuptake,in vivo was calculated by integration plots obtained applying the Patlak method in Pmod (Pmod Technologies, CH) version 3.2, limiting the linear fit to the uptake phase (0–3 min).
# Intrinsic biliary clearance of the radiotracer CLint,bile was determined as proposed by Takashima et al. by quantification of the radiotracer in the liver and the intestine (as amount of radiotracer excreted into the bile).
# NTCP [2] = test system: NTCP; design: method as in PMID 28011201; settings: in vitro; cited from earlier work
# [3] = Postmortem biodistribution of the tracer (gamma counting, 50 min postinjection); format: in vivo, rat; settings: for activity in the terminal blood sample versus control: p < 0.05
# Experimental: Samples of the liver, heart, and kidney were collected at the end of the PET-CT scan (after euthanasia) and homogenised with methanol (80% in water, 5 mL per gram of biological sample) by means of a homogenizer. Samples were stored in preweighed plastic vials. Terminal blood was collected by cardiac puncture just before euthanasia. The activity of the homogenates and blood samples was measured by means of a precalibrated gamma counter as soon as possible after the PET experiment.
# [4] = design: method as in PMID 28011201; settings: in vitro; cited from earlier work
# [5] = Postmortem metabolites analysis by radio-HPLC; format: in vivo, rat; settings: 50 min postinjection
# Experimental: Analysis of metabolites in the blood, liver, and bile (extracted from the intestine) was performed via radio-HPLC. Blood samples, collected by cardiac puncture at the end of the PET-CT scan, were treated with an equal volume of acetonitrile, centrifuged for 1 minute at 1000 rpm and the supernatant was injected in radio-HPLC (Shimadzu Prominence HPLC system equipped with a PDA UV detector and HERM LB500 activity detector and Phenomenex Luna C18 column, 5 μm, 100 Å, 250 × 4.6 mm, injection volume 20 µL, PBS/CH3CN 60 : 40, isocratic elution, flow: 1 mL·min^−1). Samples of the liver and duodenum were collected at the end of the PET-CT scan (after euthanasia) homogenated with methanol (80% in water, 5 mL per gram of biological sample) by means of a homogenizer and centrifuged for 1 minute at 1000 rpm and the supernatant was injected in radio-HPLC.
# OATP1B1 [6] = test system: OATP1B1; design: method as in PMID 28011201; settings: in vitro; cited from earlier work
# BSEP [7] = test system: BSEP; design: method as in PMID 28011201; settings: in vitro; cited from earlier work
# OATP1B3 = test system: OATP1B3; design: method as in PMID 28011201; settings: in vitro; cited from earlier work
# MRP2 transporter = test system: MRP2 transporter; design: method as in PMID 27676153; settings: 0.3–300 µM, increased efflux of LTC4, MRP2 transfected membrane vesicles; cited from earlier work
# BSEP [8] = settings: read-out: IC50 for BSEP; cited from earlier work
# OATP1B1 [9] = settings: cited from earlier work
# NTCP [10] = settings: cited from earlier work
# [11] = rifamycin SV-treated rats (total dose 62.5 mg·Kg^−1)
compound,measurement,setting,value
"C[C@H](CCC(=O)NC(Cc1cn(CCCC[18F])nn1)C(=O)O)[C@H]1CC[C@H]2[C@@H]3CC[C@@H]4C[C@H](O)CC[C@]4(C)[C@H]3CC[C@]12C (some centres unmarked) [[ ^18 F]LCATD, LithoCholic Acid Triazole Derivative]",activity in the liver 2 minutes after tracer injection,[1]; control rats,14.2 ± 0.8%
same,maximum activity recorded in the liver,[1]; control rats,14.2 ± 0.8 % of the injected dose
same,residual activity in the liver after 30 minutes,[1]; control rats,1.04 ± 0.17 % of the injected dose
same,"CLuptake,in vivo (in vivo hepatic uptake clearance)","[1]; control rats, image-derived blood input",2.09 ± 0.27 mL/min/g
same,t max (time to maximum peak concentration in liver),"[1]; control rats, [18F]LCATD only, iv bolus",2.25 min
same,AUCbile 0–10 min (radioactivity in the gastrointestinal tract),[1]; control rats,89 ± 1 % ID·min·mL^−1
same,AUCliver 0–5 min,[1]; control rats,58 ± 1 % ID·min·mL^−1
same,AUCliver 0–30 min,[1]; control rats,110 ± 15 % ID·min·mL^−1
same,"CLint,bile (intrinsic biliary clearance of the radiotracer)",[1]; control rats,0.17 ± 0.03 mL/min/g
same,Kp liver 0−5 min (apparent liver-to-blood AUC0–5 min ratio),[1]; control rats,3.64 ± 0.09
same,activity in the liver after 30 minutes,[1]; fusidate-treated rats,1.02 ± 0.02 % of the injected dose
same,t max (time to maximum peak concentration in liver),[1]; fusidate-treated rats (20 mg·Kg^−1 ip 30 min before scan + 10 mg·Kg^−1 iv 15 min after tracer injection),2.25 min
same,maximum activity recorded in the liver,[1]; fusidate-treated rats (30 mg·Kg^−1),11.5 ± 0.3 % of the injected dose
same,"CLuptake,in vivo (in vivo hepatic uptake clearance)",[1]; fusidate-treated rats,1.40 ± 0.13^∗ mL·min^−1·g^−1
same,AUCbile 0–10 min (radioactivity in the gastrointestinal tract),[1]; fusidate-treated rats,93 ± 19 % ID·min·mL^−1
same,AUCliver 0–5 min,[1]; fusidate-treated rats,48 ± 0.3^∗ % ID·min·mL^−1
same,AUCliver 0–30 min,[1]; fusidate-treated rats,89 ± 11 % ID·min·mL^−1
same,"CLint,bile (intrinsic biliary clearance of the radiotracer)",[1]; fusidate-treated rats,0.36 ± 0.03^∗ mL·min^−1·g^−1
same,"Cmax,liver (maximum measured activity in the liver)",[1]; fusidate-treated rats,11.5 ± 0.3^∗ % ID·mL^−1
same,Kp liver 0−5 min (apparent liver-to-blood AUC0–5 min ratio),[1]; fusidate-treated rats,2.451 ± 0.016
same,activity in the liver 2 minutes after tracer injection,[1]; rifamycin SV-treated rats,8.0 ± 0.6%
same,activity in the liver after 30 minutes,[1]; rifamycin SV-treated rats,1.87 ± 0.13 % of the injected dose
same,t max (time to maximum peak concentration in liver),[1]; rifamycin SV-treated rats (50 mg·Kg^−1 ip 45 min before scan + 12.5 mg·Kg^−1 iv at tracer injection),3.75 min
same,delay of t max relative to control rats,[1]; [11],1.5 min
same,maximum activity recorded in the liver,[1]; [11],10.2 ± 0.9 % of the injected dose and 10.2 ± 1.0 % of the injected dose
same,"CLuptake,in vivo (in vivo hepatic uptake clearance)",[1]; rifamycin SV-treated rats,0.71 ± 0.05^∗ mL·min^−1·g^−1
same,AUCbile 0–10 min (radioactivity in the gastrointestinal tract),[1]; rifamycin SV-treated rats,53 ± 3^∗ % ID·min·mL^−1
same,AUCliver 0–5 min,[1]; rifamycin SV-treated rats,44 ± 4^∗ % ID·min·mL^−1
same,AUCliver 0–30 min,[1]; rifamycin SV-treated rats,139 ± 9 % ID·min·mL^−1
same,"CLint,bile (intrinsic biliary clearance of the radiotracer)",[1]; rifamycin SV-treated rats,0.12 ± 0.03 mL/min/g
same,"Cmax,liver (maximum measured activity in the liver)",[1]; rifamycin SV-treated rats,10.2 ± 0.9^∗ % ID·mL^−1
same,Kp liver 0−5 min (apparent liver-to-blood AUC0–5 min ratio),[1]; rifamycin SV-treated rats,2.07 ± 0.17
same,activity in the liver 2 minutes after tracer injection,[1]; sodium fusidate-treated rats,11.4 ± 0.4%
same,transport by uptake transporter NTCP,NTCP [2],substrate
same,activity in the terminal blood sample versus control,[3]; fusidate-treated rats,significantly increased
same,activity in the kidneys,[3]; postmortem,< 0.1 % of the injected dose
same,activity in the terminal blood sample versus control,[3]; rifamycin SV-treated rats,significantly increased
same,passive permeability,[4],low
same,metabolic stability of the tracer,"[5]; in vivo, rat",at least 90%
same,share of activity in intestine extracts as twin peak matching [18F]LCATD,"[5]; radio-HPLC, intestine extracts of two control animals",over 90%
same,transport by uptake transporter OATP1B1,OATP1B1 [6],substrate
same,transport by efflux transporter BSEP,BSEP [7],excreted into the bile via the efflux transporter BSEP
same,transport by OATP1B3,OATP1B3,low affinity substrate
CC(=O)O[C@H]1C[C@@]2(C)[C@@H](C[C@@H](O)[C@H]3[C@@]4(C)CC[C@@H](O)[C@@H](C)[C@@H]4CC[C@@]32C)/C1=C(\CCC=C(C)C)C(=O)O [fusidic acid],effect on MRP2 transporter (canalicular efflux) in vitro,MRP2 transporter,stimulate
CO[C@H]1/C=C/O[C@@]2(C)Oc3c(C)c(O)c4c(O)c(cc(O)c4c3C2=O)NC(=O)/C(C)=C\C=C\[C@H](C)[C@H](O)[C@@H](C)[C@@H](O)[C@@H](C)[C@H](OC(C)=O)[C@@H]1C [rifamycin SV],IC50,BSEP [8],6.3 µM
same,IC50,OATP1B1 [9],0.2 to 0.4 µM
same,Ki,NTCP [10]; read-out: K i for NTCP,> 63 µM
CC(=O)O[C@H]1C[C@@]2(C)[C@@H](C[C@@H](O)[C@H]3[C@@]4(C)CC[C@@H](O)[C@@H](C)[C@@H]4CC[C@@]32C)/C1=C(\CCC=C(C)C)C(=O)O [sodium fusidate],IC50,BSEP [8],3.8 to 11.5 µM
same,IC50,OATP1B1 [9],1.6 to 35 µM
same,IC50,NTCP [10],44 µM
